In data set [1] the target is T1, PDK-Akt activation sequence (recombinant PDK-1 and Akt-1) (Homo sapiens, UniProt O15530).
T1 construct: purchased Amsbio
T1 sequence (O15530 1-556): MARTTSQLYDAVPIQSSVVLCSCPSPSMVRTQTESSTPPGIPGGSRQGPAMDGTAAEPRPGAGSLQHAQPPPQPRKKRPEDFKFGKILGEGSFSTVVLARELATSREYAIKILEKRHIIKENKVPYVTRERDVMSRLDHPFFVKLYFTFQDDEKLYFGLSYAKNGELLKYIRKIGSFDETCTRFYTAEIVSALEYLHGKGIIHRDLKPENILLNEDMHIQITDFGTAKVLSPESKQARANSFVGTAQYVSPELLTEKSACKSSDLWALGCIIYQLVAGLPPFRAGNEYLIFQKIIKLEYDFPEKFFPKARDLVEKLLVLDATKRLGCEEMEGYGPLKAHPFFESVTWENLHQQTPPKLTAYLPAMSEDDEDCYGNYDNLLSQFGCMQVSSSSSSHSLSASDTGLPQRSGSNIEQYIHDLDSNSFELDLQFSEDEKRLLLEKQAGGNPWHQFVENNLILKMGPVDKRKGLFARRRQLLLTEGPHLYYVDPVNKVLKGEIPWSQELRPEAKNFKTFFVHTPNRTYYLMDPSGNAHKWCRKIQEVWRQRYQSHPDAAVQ
Description: In vitro drug screen of PS48-family compounds: PDK-1/Akt-1 activation sequence inhibited by Aβ42 ADDL oligomers (western readout). The note with it: for potency relative to PS48: based on Table 1 data; for GSK peptide and Akt T308 phosphorylations, Westerns of in vitro reaction mixture (FIG. 6A): compared to PS48; for fraction of control activity: compound 10 μM. Format: biochemical. On the procedure:
Incubation proceeded for 15 min. GSK-tide (Cell Signaling) was then added and the reaction allowed to continue for 20 min more before termination in sample buffer and fractionation on SDS gel. […] The in vitro results were validated using a cell culture-based assay, as above. […] Compound was added for 12 hrs. The cells were stimulated with insulin before harvest.
Where quantified, experiments were carried out in triplicate unless otherwise stated. Mean, standard errors and significance levels using Student's t-test were computed in Excel or Prism. […] Western signal intensities were all quantified by densitometry. […] Therefore, where both endpoints were evaluated, normalized values were both included in the quantification as indicated.
Drug screening experiments were performed using a focused library of novel compounds that were synthesized using PS48 as the starting scaffold. Two generations were created based on structure-activity relations (SAR) in an attempt to optimize performance.

The subject of data set [2] is Akt phosphorylation in Aβ42-expressing SH-SY5Y cells. The data set is described as follows: Akt activation in Aβ42-expressing cells (adenovirus/doxycycline, insulin-stimulated). The class given is cell-based. Particulars: SH-SY5Y; for Phospho-Akt levels (T308 and S473 pooled) in cell-based model of Aβ toxicity, verification of analogs: compound 1 μM, insulin 40 nM last 20 minutes. On the procedure: Adv TetOn and TRE-Aβ42 viruses were described previously (Magrane et al., 2005). […] Insulin (10 or 40 nM) was added in the last 20-30 min before harvest. […] Cell extracts were prepared in lysis buffer [20 mM Tris-HCl (pH 7.5), 150 mM NaCl, 1 mM EDTA, 1 mM Na3VO4, 1% NP-40, 10% Glycerol, 1 mM Na4P2O7, 1 μg/ml Leupeptin, 1 μg/ml Pepstatin A, 1 μg/ml Aprotinin, 0.1 mM phenylmethylsulfonyl fluoride, and protease inhibitor cocktail (Roche)] and were stored at −80° C. until use.
Whole-cell extracts were used directly for western blot analysis (20˜30 μg). Extracts from cultured cells prepared in lysis buffer, were diluted into Laemmli sample buffer, heated (95° C., 10 min), cleared by centrifugation, separated on SDS-PAGE and transferred to PVDF membrane (Immobilon-P; Millipore). Membranes were blocked in TBS containing 0.3% Tween-20 and 5% (wt/vol) non-fat dry milk. After incubation with primary antibodies (18 hr at 4° C. in buffer containing 5% bovine serum albumin (BSA) and 0.05% NaN3), blots were washed and incubated in horseradish peroxidase (HRP)-conjugated secondary antibodies (1:2000 dilution; Cell Signaling). Signals were detected using ECL reagents and quantified using a Kodak Image Station 4000R.
[…]. […] […]. […] […].

A further data set deals with N2a neural cultures. Description: WST assay toxicity in N2a neural cultures. The class given is cell-based. The note with it: result not shown. The text has this:
. […]. Examples of in vitro assay performance are shown in FIG. 6A and FIG. 6B for compound 508-1-25 (generation 1) and compound 508-1-68 (generation 2). […] The new “hit” compounds also had no direct or indirect effects on potential downstream off-targets such as mTOR (protein levels and phosphorylation status, results not shown). […]

The subject of data set [3] is LTP in rat prefrontal cortical slices. Description: Long term potentiation (LTP) in acute prefrontal cortical slices perfused with Aβ42 oligomers. Format: cell-based. Particulars: Aβ42 ADDLs 0.5 μM; PS48 10 μM, at the 1-hour mark after Aβ42 application. As for the experimental part: FIG. 3A. […] LTP was measured as % baseline excitatory postsynaptic potential (EPSP) amplitudes. […] Washout restored LTP (4).
Minor modifications were made to previous published procedures (Marshall et al., 2017; Molina-Luna et al., 2009). Deeply anesthetized rats (pentobarbital, 50 mg/kg) were decapitated, their brains quickly removed and immersed in cold (5-7° C.), oxygenated (95% O2/5% CO2) artificial cerebrospinal fluid (ACSF) containing: 126 mM NaCl, 3 mM KCl, 1.25 mM NaH2PO4, 1 mM MgSO4, 2 mM CaCl2, 26 mM NaHCO3, 10 mM dextrose. […] Control treatment was DMSO in ACSF (artificial cerebrospinal fluid, 20 μM bicuculline). Extracellular postsynaptic field potentials were recorded using an AxoClamp2B amplifier (Axon instruments) and EX1 differential amplifier (Dagan), and digitized at 10 kHz. Data was acquired using Igor Pro (Wave Metrics) and Neuromatic (neuromatic.thinkrandom.com). The stimulus intensity eliciting 50% of the maximum amplitude (˜32 μA) was used for all measurements before and after LTP induction. Baseline amplitudes were recorded for 20-30 minutes using single field stimuli applied every 30 sec to layer IV-V using concentric bipolar electrodes. Following a stable baseline period, LTP was induced by two sets of high-frequency stimulation (HFS) at 100 Hz, 60 μA (twice stimulus intensity), for 1 sec, 20 sec apart. Extracellular postsynaptic field potentials were measured from layer II-III using glass micropipettes filled with 0.9% NaCl. The amplitude rather than the slope of evoked FPs was used as a measure of the population excitatory synaptic response because in the neocortex the initial slope was contaminated by antidromic stimulation. LTP values were expressed as percentage of mean baseline EPSP±SEM. Paired two-tailed t-tests were used for statistical analysis.
LTP was measured as % baseline excitatory postsynaptic potential (EPSP) amplitudes. […] Washout restored LTP.

The next data set has as its system SH-SY5Y cells. The data set is described as follows: Cell viability, MTT assay, Aβ42-expressing SH-SY5Y cells. The note with it: pretreatment before doxycycline; PS48 10 μM or insulin 100 nM; harvested at 48 hrs.
[4] abbreviates: first generation PS48 analogs, Aβ42 ADDL 10 μM, Aβ 42 alone = 0.62 (.16), control normalized to 1.00.

Entries after “also recorded” stand apart in the source; their conditions may differ.

For `O=C(/C=C(/CCc1ccc(Cl)cc1)c1ccccc1)NCCO` [508-1-7], in data set [1], the “potency relative to PS48” value is listed as “increase in potency over PS48”; the “GSK peptide and Akt T308 phosphorylations, Westerns of in vitro reaction mixture (FIG. 6A)” value is given as “restored activation as well as or better than PS48”. In data set [1] (setting [4]), the “fraction of control activity” value is recorded as 0.97 (.10).
In the case of `O=C(O)CNC(=O)/C=C(/CCc1ccc(Cl)cc1)c1ccccc1` [508-1-25], the “Phospho-Akt levels (T308 and S473 pooled) in cell-based model of Aβ toxicity, verification of analogs” value in data set [2] is “correcting the inhibition of Akt phosphorylation”; in data set [2] (listed as 501-1-25), “active”. The LD50 in the data set with N2a neural cultures was found to be 350 µM. In addition, in data set [1], the “potency relative to PS48” value is on record as “increase in potency over PS48”. The “GSK peptide and Akt T308 phosphorylations, Westerns of in vitro reaction mixture (FIG. 6A)” value in data set [1] is reported as “restored activation as well as or better than PS48”. Besides, the “fraction of control activity” value in data set [1] (setting [4]) was 0.99 (.07).
Regarding `O=C(O)c1cn(Cc2ccc(OC(F)(F)F)cc2)c2ccccc12` [508-1-31], the “potency relative to PS48” value in data set [1] is given as “increase in potency over PS48”. Further, the “fraction of control activity” value in data set [1] (setting [4]) is 0.95 (.11).
Regarding `COC(=O)CNC(=O)/C=C(\CCc1ccc(Cl)cc1)c1ccccc1` [508-1-68], the “Phospho-Akt levels (T308 and S473 pooled) in cell-based model of Aβ toxicity, verification of analogs” value in data set [2] was “correcting the inhibition of Akt phosphorylation; also recorded: active”. In addition, in data set [1], the “potency relative to PS48” value is reported as “increase in potency over PS48”; the “GSK peptide and Akt T308 phosphorylations, Westerns of in vitro reaction mixture (FIG. 6A)” value is given as “restored activation as well as or better than PS48”. The “fraction of control activity” value in data set [1] (second generation PS48 analogs, Aβ 42 alone = 0.72 (.05)) is listed as 1.02 (.06).
For the compound `O=C(O)/C=C(\CCc1ccc(Cl)cc1)c1ccccc1` [PS47, (E)-5-(4-chlorophenyl)-3-phenylpent-2-enoic acid], the “LTP (% baseline EPSP amplitude) inhibited by Aβ42 oligomers” value in data set [3] is “no effect”.
For insulin: Human insulin, recombinant, the “Akt activation (pT308) in β-amyloid-expressing cells” value in data set [2] (PS48 1 μM or insulin 100 nM added 2 hrs before doxycycline, insulin 40 nM 20 min prior to harvest) is listed as “restored basal Akt activation levels”. Besides, the “cell viability (MTT) of amyloid-bearing cells” value with SH-SY5Y cells was “reverted cells to basal condition or better”.

Source of the values: patent US12653799B2, “Compositions and methods for treating Alzheimer's disease” (ELEANORE BENNETT CHARITABLE TRUST #2, priority 2021, dated 2026).
